Tests used:
[1] = system: cord blood (CB)-derived CD34+ cells; format: cell-based, human; settings: CB-derived CD34+ HSPC; MOI 1; 20 μm FK506, 5 mM 3-MA alone or with 10 μM CsA / 10 μg/mL rapamycin
Protocol: (§1) Human CB and BM-derived haematopoietic stem/progenitor cells (HSPC) were cultured in serum-free StemSpan medium (StemCell Technologies) supplemented with 100 ng/mL recombinant human stem cell factor (rhSCF), 20 ng/mL recombinant human thrombopoietin (rhTPO), 100 ng/mL recombinant human Flt3 ligand (rhFlt3) and 20 ng/mL recombinant human IL6 (rhIL6) (all from Peprotech) 16 to 24 hours prior to transduction. HSPC were then transduced at a concentration of 1×10^6 cells per mL with vesicular stomatitis virus glycoprotein (VSV-G)-pseudotyped SINLV for 20 hours at the indicated multiplicity of infection (MOI) in the same medium. After transduction, cells were washed and maintained serum-free StemSpan supplemented with cytokines as above until the reading of GFP-positive (GFP+) cells by FACS. After FACS they were maintained in Roswell Park Memorial Institute medium (RPMI, Lonza) supplemented with 10% FBS, 25 ng/mL rhSCF, 5 ng/mL rhIL6, 25 ng/mL rhFlt3 and 5 ng/mL rhTPO for another seven days before analysis of vector copy numbers. MDM were transduced 7 days after differentiation. T lymphocytes were transduced at a concentration of 10^6 cells per mL, after 3 days of stimulation. All the cells were exposed to the vector for 16-20 hours.
(§2) They were added to the transduction medium at the indicated concentration and washed out with the vector 16-20 hours later.
(§3) GFP expression in transduced cells was measured 5-7 days post-transduction. Adherent MDM were detached by scraping in 5 mM PBS-EDTA, washed and resuspended in PBS containing 2% FBS. Cells grown in suspension were washed and resuspended in PBS containing 2% FBS. To exclude dead cells from the analysis, 10 ng/mL 7-aminoactinomycin D (7-AAD) was added.
(§4) DNA from cell cultures was extracted using a Maxwell 16 instrument (Promega) or Blood & Cell Culture DNA Micro Kit (Qiagen). To amplify the vector sequence, primers and probes complementary to the vector Rev responsive element sequence were used. Vector copy numbers and replication intermediates were normalised to genomic DNA content, which was assessed using the human TERT gene. Quantitative polymerase chain reaction (qPCR) primers and probe sequences and conditions were previously described (Santoni de Sio, F. R. et al (2006) Blood 107: 4257-65).

[2] = system: bone marrow (BM)-derived CD34+ cells; format: cell-based, human; settings: BM-derived CD34+ HSPC; MOI 1; 20 μm FK506, 5 mM 3-MA alone or with 10 μM CsA / 10 μg/mL rapamycin
Protocol: as §1, §2, §3, §4

Structure (SMILES): Cn1cnc(N)c2ncnc1-2 [3-MA, 3-methyladenine]
- impact on LV transduction efficiency (in words) [1]: little or no effect
- impact on LV transduction efficiency (in words) [2]: little or no effect
